These results are taken from patent publication US20190136188A1, “4HPR AND ITS USE IN THE CULTURING OF HEMATOPOIETIC STEM CELLS” (UNIVERSITY HEALTH NETWORK, priority 2016, published 2019).

The target of assay [1] is T1, DEGS1 (Homo sapiens, UniProt O15121).
T1 construct: endogenous in cells; host or cells: lineage-depleted human cord blood (lin- CB) cells
T1 sequence (O15121 1-323): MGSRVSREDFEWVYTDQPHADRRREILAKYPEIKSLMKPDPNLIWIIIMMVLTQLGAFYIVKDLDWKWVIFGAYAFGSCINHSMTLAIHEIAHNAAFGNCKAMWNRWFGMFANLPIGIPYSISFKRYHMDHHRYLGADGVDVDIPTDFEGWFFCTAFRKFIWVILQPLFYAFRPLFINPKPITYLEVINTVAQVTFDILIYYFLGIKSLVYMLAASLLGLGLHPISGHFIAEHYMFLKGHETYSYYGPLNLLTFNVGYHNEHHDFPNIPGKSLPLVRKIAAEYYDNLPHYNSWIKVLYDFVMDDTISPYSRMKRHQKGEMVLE
Put plainly: Lipid mass spectrometry (LC/MS) of sphingolipids, DEGS1 activity. Type of assay: cell-based.

For assay [2], the system named is lineage-depleted CB (lin-CB) cells. Kind of assay: Dose titration of 4HPR, cell viability. Type of assay: cell-based. Particulars: Homo sapiens, 72 h, 3 days post-treatment, read-out: concentration giving half maximal cell viability compared to vehicle control. The procedure:
(A) Dose response of varying [4HPR] in CB at day 3 post-treatment showing 2 uM 4HPR gives the relative half maximal number of viable cells compared to control. All experiments following are at this 4HPR concentration unless otherwise indicated. […] (C) LC/MS was used to profile the ceramide (Cer), dihydroceramide (dhCer), sphingosine (sph), dihydrosphingosine (dhSph), S1P and dihydro-S1P (dhS1P) levels in lin− CB cells cultured for 8 days with control or 4HPR (n=2). […] (D) HSC, MPP, or GMP were sorted into methylcellulose for CFC assays in the presence of control or 4HPR and colonies were blindly scored following 10-11 days for (D) colonies/100 cells and ((E) colony distribution are shown (n=7). (F) Flow cytometry for erythroid (GlyA+) and monocytic (CD14+) markers in live cells from pooled CFC colonies were scored (n=6). (F) Relative number of colonies from CFC assays comparing the effect of 4HPR or ATRA (n=3) on sorted HSC, MPP or GMP.
However, the functional consequence of 4HPR treatment on human cord blood primitive cells is unknown. […]

Assay [3] relates to DEGS1. The settings on record: prolong exposure at micromolar concentrations in vitro; cited from earlier work.
Assay [4] concerns CD34+CD38- (stem) and CD34+CD38+ (prog) cells. Kind of assay: LC3II immunofluorescence with and without Baflomycin A1 (autophagy). It counts as cell-based, human. Particulars: day 2, 2 uM 4HPR, in the presence of BAF; stem vs prog. As for the experimental part:
(A) Representative mmunofluorescence images taken by confocal microscopy for DAPI (blue) and LC3II staining (green) for CD34+CD38− cells (stem) following 2 days of treatment with DMSO control or 2 uM 4HPR with and without the autophagy inhibitor baflomycin A1 (BAF) to assay for basal autophagy and autophagic flux. (B) Quantitation of LC3II foci area as a percentage of total cell area for stem and prog (CD34+38+) cells from three independent CB using R and Image J software. (C) LCII foci area is increased with 4HPR treatment relative to control in the presence of BAF only in stem populations and not Prog populations. (D) Representative flow cytometry histogram plot of cyto-ID fluorescence intensity of control (black) and 4HPR (green) treated stem cells to assay for autophagic flux. Lower mean fluorescence intensity (MFI) indicates more turnover of autophagosomes and thus increased autophagic flux. […] (F) Cytokine withdrawal for 3 hours activates autophagic flux in CB stem cells to similar levels as 2 uM 4HPR as assayed by cyto-ID flow cytometry at day 2 post-treatment (n=3).
We hypothesize that such selective enhancement of CFC cloning efficiency with 4HPR treatment is a result of activating autophagy in HSC in human CB. Warr et all had previously shown that mouse HSC, but not comitted progenitors activate autophagy under stress stimuli. […]

Assay [5] has as its system CB stem and prog cells. Put plainly: Flow cytometry for ROS (CELLROX), mitochondrial membrane potential (TMRE), mitochondrial mass (mitotracker green). Type of assay: cell-based, human. (In general: In flow cytometry, cells or beads pass a laser one at a time.)
For assay [6], the system named is sorted HSC, MPP or GMP. Kind of assay: Cell cycle analysis with Ki67 and Hoescht by flow cytometry. Type of assay: cell-based, human. The settings on record: 2 uM 4HPR, day 2 or day 3.
For assay [7], the system named is lin- CB cells. Kind of assay: RNA-sequencing gene set enrichment. It counts as cell-based, human. The settings on record: 4HPR vs Ctrl. The text has this: RNA from 3 pools of Lin− CB cells treated with vehicle control, 4HPR, UM171+SR1 or the triple combination of 4HPR+UM171+SR1 for 2 days were subjected to RNA-sequencing without amplification on the Illumina HiSeq 2500. (A) Functional enrichment map of gene sets enriched (red) by 4HPR treatment including or enriched by Ctrl treatment (blue) at day 2.
To elucidate the genetic pathways enriched by 4HPR treatment in human CB that may contribute to preserving HSC function in ex vivo expansion alone or in combination with UM171 and SR1, we performed RNA-sequencing of 3 pools of lin-CB at day 2 and day 4 following treatment with all four treatment groups. To avoid amplification bias, RNA-seq was performed on samples without amplification. […] The latter is known to be regulated by autophagy (Singh, Nature, 2009).

[8] abbreviates: lin-CB cells cultured 8 days, 2 uM 4HPR.
The mark [9] stands for this setting: stem and prog cells, day 2 and day 3.

With `CC1=C(/C=C/C(C)=C/C=C/C(C)=C/C(=O)Nc2ccc(O)cc2)C(C)(C)CCC1` [4HPR, N-(4hydroxyphenyl)retinamide], in assay [1] (8 day culture, alone or in combination with UM171 and SR1), the “dhCer and dhSph levels” value is “increases dhCer and dhSph”. For the same compound, in assay [1] (setting [8]), the “levels of the signaling lipid S1P” value is “not altered”, the “total ceramide compared to control” value is “decrease total ceramide” and the “total dihydroceramide compared to control” value is “increase total dihydroceramide”. For the same compound, in assay [2], the IC50 was found to be 2 µM. For the same compound, the DEGS1 activity result in assay [3] is “irreversibly inhibits DEGS1 activity”. Moreover, in assay [4], the “LC3II foci area relative to ctrl (upregulation of autophagy)” value is recorded as “only 4HPR-treated stem cells, but not prog cells exhibit an upregulation of autophagy”. For the same compound, the mitochondrial mass entry in assay [5] (progenitor cells, 2 days of treatment) is given as “does decrease mitochondrial mass”. For the same compound, in assay [5] (setting [9]), the ROS entry was “decreased”, the mitochondrial mass result is on record as “decreased” and the mitochondrial membrane potential result is recorded as “decreased”. In assay [5] (stem cells, 2 days of treatment), the mitochondrial mass entry was “without significantly altering mitochondrial mass in stem cells”. Also, the mitochondrial mass entry in assay [5] (stem cells, D3 post-treatment) is “decreases mitochondrial mass by day 3 post-treatment in stem cells”. Further, the “cell cycle transit (Ki67 and Hoescht)” value in assay [6] is “no significant difference between ctrl and 4HPR”. Besides, in assay [7], the “ER stress and UPR gene sets” value is “upregulates ER stress and UPR gene sets”; the autophagy gene sets entry is given as “enriched for autophagy gene sets including mitophagy”; the “ceramide/sphingolipid biosynthesis gene sets” value is “enrichment of ceramide/sphingolipid biosynthesis gene sets”; the cholesterol/sterol biosynthetic pathways result is “decrease in cholesterol/sterol biosythetic pathways”.
